Measurements as given in ChEMBL document CHEMBL1201862, “PubChem BioAssay data set” (2004).
Several values for one entry are separate records, joined by “and”; a condition that tells them apart may be missing. Equal values may be shown once.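 All cell lines were grown in 96-well plates and treated with compound for 48 hours. Here, GI50 denotes the concentration required for 50% inhibition of growth.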 Activity calls are given as the source filed them. Rule as the data show it: active = GI50 up to about 1.1 µM and inactive = higher.

Assays:
Assay in all cases: growth of human tumour cells (NCI), 48 h
[1] = system: OVCAR-8
[2] = system: MDA-N
[3] = system: SK-MEL-28
[4] = system: DU-145
[5] = system: OVCAR-5
[6] = system: SK-MEL-2
[7] = system: Malme-3M
[8] = system: HCT-15
[9] = system: NCI/ADR-RES
[10] = system: MCF7
[11] = system: SNB-19
[12] = system: SF-539
[13] = system: PC-3
[14] = system: SF-268
[15] = system: KM12
[16] = system: SK-OV-3
[17] = system: RPMI-8226
[18] = system: IGROV-1
[19] = system: UACC-62
[20] = system: K562
[21] = system: HOP-92
[22] = system: 786-0
[23] = system: HL-60
[24] = system: SNB-75
[25] = system: MDA-MB-231
[26] = system: ACHN
[27] = system: UACC-257
[28] = system: CCRF-CEM
[29] = system: HT-29
[30] = system: MDA-MB-435
[31] = system: U-251
[32] = system: NCI-H460
[33] = system: A549
[34] = system: SK-MEL-5
[35] = system: LOX IMVI
[36] = system: UO-31
[37] = system: Hs-578T
[38] = system: HOP-62
[39] = system: SW-620
[40] = system: HCC 2998
[41] = system: CAKI-1
[42] = system: TK-10
[43] = system: NCI-H226
[44] = system: SR
[45] = system: SF-295
[46] = system: COLO 205
[47] = system: MOLT-4
[48] = system: T47D
[49] = system: OVCAR-4
[50] = system: RXF 393
[51] = system: NCI-H522
[52] = system: SN12C
[53] = system: HCT-116
[54] = system: EKVX
[55] = system: M14
[56] = system: OVCAR-3
[57] = system: NCI-H23
[58] = system: A498

COc1cccc(-c2cc(O)c3cc(N4CCCC4)ccc3n2)c1
GI50 [1]: < 0.001 µM (active) | GI50 [2]: < 0.001 µM (active) | GI50 [3]: < 0.001 µM (active) | GI50 [4]: < 0.001 µM (active) | GI50 [5]: 0.00328 µM (active) | GI50 [6]: < 0.001 µM (active) | GI50 [7]: < 0.001 µM (active) | GI50 [8]: 0.00169 µM | GI50 [9]: < 0.001 µM (active) | GI50 [10]: 39.4 nM (active) | GI50 [11]: < 0.001 µM (active) | GI50 [12]: < 0.001 µM (active) | GI50 [13]: < 0.001 µM (active) | GI50 [14]: < 0.001 µM (active) | GI50 [15]: < 0.001 µM (active) | GI50 [16]: < 0.001 µM (active) | GI50 [17]: < 0.001 µM (active) | GI50 [18]: 0.005 µM (active) | GI50 [19]: < 0.001 µM (active) | GI50 [20]: < 0.001 µM (active) | GI50 [21]: 0.00112 µM (active) | GI50 [22]: < 0.001 µM (active) | GI50 [23]: < 0.001 µM (active) | GI50 [24]: < 0.001 µM (active) | GI50 [25]: 0.00155 µM (active) | GI50 [26]: 0.00113 µM (active) | GI50 [27]: < 0.001 µM (active) | GI50 [28]: < 0.001 µM (active) | GI50 [29]: < 0.001 µM (active) | GI50 [30]: < 0.001 µM (active) | GI50 [31]: < 0.001 µM (active) | GI50 [32]: < 0.001 µM (active) | GI50 [33]: < 0.001 µM (active) | GI50 [34]: < 0.001 µM (active) | GI50 [35]: < 0.001 µM (active) | GI50 [36]: < 0.001 µM (active) | GI50 [37]: < 0.001 µM (active) | GI50 [38]: < 0.001 µM (active) | GI50 [39]: < 0.001 µM (active) | GI50 [40]: 0.00206 µM (active) | GI50 [41]: < 0.001 µM (active) | GI50 [42]: 2.6 µM (inactive) | GI50 [43]: < 0.001 µM (active) | GI50 [44]: < 0.001 µM (active) | GI50 [45]: < 0.001 µM (active) | GI50 [46]: < 0.001 µM (active) | GI50 [47]: < 0.001 µM (active) | GI50 [48]: > 10 µM (inactive) | GI50 [49]: 2.67 µM (inactive) | GI50 [50]: < 0.001 µM (active) | GI50 [51]: < 0.001 µM (active) | GI50 [52]: < 0.001 µM (active) | GI50 [53]: < 0.001 µM (active) | GI50 [54]: 0.166 µM (active) | GI50 [55]: < 0.001 µM (active) | GI50 [56]: < 0.001 µM (active) | GI50 [57]: 0.00279 µM (active)

N#Cc1c(N2CCCC2)nsc1Nc1ccc(F)cc1
GI50 [1]: 78 µM (inactive) | GI50 [2]: > 100 µM (inactive) | GI50 [3]: > 100 µM (inactive) | GI50 [4]: > 100 µM (inactive) | GI50 [5]: > 100 µM (inactive) | GI50 [6]: > 100 µM (inactive) | GI50 [7]: > 100 µM (inactive) | GI50 [8]: > 100 µM | GI50 [9]: > 100 µM (inactive) | GI50 [11]: > 100 µM (inactive) | GI50 [12]: > 100 µM (inactive) | GI50 [13]: > 100 µM (inactive) | GI50 [14]: > 100 µM (inactive) | GI50 [15]: > 100 µM (inactive) | GI50 [16]: 61.2 µM (inactive) | GI50 [17]: > 100 µM (inactive) | GI50 [18]: > 100 µM (inactive) | GI50 [19]: > 100 µM (inactive) | GI50 [20]: > 100 µM (inactive) | GI50 [58]: > 100 µM (inactive) | GI50 [21]: > 100 µM (inactive) | GI50 [22]: > 100 µM (inactive) | GI50 [23]: > 100 µM (inactive) | GI50 [25]: > 100 µM (inactive) | GI50 [26]: > 100 µM (inactive) | GI50 [27]: > 100 µM (inactive) | GI50 [28]: > 100 µM (inactive) | GI50 [29]: > 100 µM (inactive) | GI50 [30]: > 100 µM (inactive) | GI50 [31]: > 100 µM (inactive) | GI50 [32]: > 100 µM (inactive) | GI50 [33]: > 100 µM (inactive) | GI50 [34]: > 100 µM (inactive) | GI50 [35]: > 100 µM (inactive) | GI50 [36]: > 10 µM (inactive) | GI50 [37]: > 100 µM (inactive) | GI50 [38]: > 100 µM (inactive) | GI50 [39]: > 100 µM (inactive) | GI50 [40]: > 100 µM (inactive) | GI50 [41]: 97.1 µM (inactive) | GI50 [42]: > 100 µM (inactive) | GI50 [43]: > 100 µM (inactive) | GI50 [44]: > 100 µM (inactive) | GI50 [45]: > 100 µM (inactive) | GI50 [46]: > 100 µM (inactive) | GI50 [47]: > 100 µM (inactive) | GI50 [48]: > 100 µM (inactive) | GI50 [49]: > 100 µM (inactive) | GI50 [50]: > 100 µM (inactive) | GI50 [51]: 57.9 µM (inactive) | GI50 [52]: > 100 µM (inactive) | GI50 [53]: > 100 µM (inactive) | GI50 [54]: 19.7 µM (inactive) | GI50 [55]: > 100 µM (inactive) | GI50 [56]: > 100 µM (inactive) | GI50 [57]: > 100 µM (inactive)

COc1cc(C2c3cc4c(cc3OC(NNS(=O)(=O)c3ccc(C)cc3)C2C)OCO4)cc(OC)c1O (configuration not stated)
GI50 [1]: 6.82 µM (inactive) | GI50 [2]: 5.21 µM (inactive) | GI50 [3]: 28.9 µM (inactive) | GI50 [4]: 33.8 µM (inactive) | GI50 [5]: 33.9 µM (inactive) | GI50 [7]: 5.85 µM (inactive) | GI50 [8]: 8.32 µM | GI50 [9]: 6.68 µM (inactive) | GI50 [10]: 6240 nM (inactive) | GI50 [11]: 16.2 µM (inactive) | GI50 [12]: 6.53 µM (inactive) | GI50 [13]: 3.87 µM (inactive) | GI50 [14]: 14.8 µM (inactive) | GI50 [15]: 8.81 µM (inactive) | GI50 [16]: 11.3 µM (inactive) | GI50 [17]: 10.1 µM (inactive) | GI50 [18]: 9.25 µM (inactive) | GI50 [19]: 15.2 µM (inactive) | GI50 [20]: 4.61 µM (inactive) | GI50 [58]: 7.98 µM (inactive) | GI50 [21]: 14.5 µM (inactive) | GI50 [22]: 16.6 µM (inactive) | GI50 [23]: 9.33 µM (inactive) | GI50 [24]: 3.61 µM (inactive) | GI50 [25]: 12.3 µM (inactive) | GI50 [26]: 7.98 µM (inactive) | GI50 [27]: 5.06 µM (inactive) | GI50 [28]: 7.94 µM (inactive) | GI50 [29]: 23.4 µM (inactive) | GI50 [30]: 3.21 µM (inactive) | GI50 [31]: 8.17 µM (inactive) | GI50 [32]: 5.85 µM (inactive) | GI50 [33]: 11.7 µM (inactive) | GI50 [34]: 9.75 µM (inactive) | GI50 [35]: 12 µM (inactive) | GI50 [37]: 16.9 µM (inactive) | GI50 [38]: 10.4 µM (inactive) | GI50 [39]: 24.3 µM (inactive) | GI50 [40]: 23.7 µM (inactive) | GI50 [41]: 12.8 µM (inactive) | GI50 [42]: 5.41 µM (inactive) | GI50 [43]: 9.16 µM (inactive) | GI50 [45]: 3.52 µM (inactive) | GI50 [46]: 19.2 µM (inactive) | GI50 [47]: 2.52 µM (inactive) | GI50 [48]: 10.1 µM (inactive) | GI50 [49]: 6.32 µM (inactive) | GI50 [50]: 10.5 µM (inactive) | GI50 [51]: 25 µM (inactive) | GI50 [52]: 19 µM (inactive) | GI50 [53]: 9.44 µM (inactive) | GI50 [54]: 11.7 µM (inactive) | GI50 [55]: 15.6 µM (inactive) | GI50 [56]: 13.7 µM (inactive) | GI50 [57]: 9.89 µM (inactive)

CN1C2C=CC(=O)C1C(C#N)C2 (configuration not stated)
GI50 [2]: 29.1 µM (inactive) and 41.3 µM (inactive) | GI50 [4]: 68.7 µM (inactive) and 40 µM (inactive) | GI50 [7]: 24 µM (inactive) and 40 µM (inactive) | GI50 [8]: 30.5 µM and 24.1 µM | GI50 [9]: 30.5 µM (inactive) and 28.2 µM (inactive) | GI50 [10]: 31.8 µM (inactive) and 35.8 µM (inactive) | GI50 [11]: 77.8 µM (inactive) | GI50 [12]: 28.4 µM (inactive) and 36.3 µM (inactive) | GI50 [13]: > 100 µM (inactive) | GI50 [14]: 95.9 µM (inactive) and 75.5 µM (inactive) | GI50 [15]: 42.9 µM (inactive) and 38.5 µM (inactive) | GI50 [16]: > 100 µM (inactive) and 83.8 µM (inactive) | GI50 [18]: 56 µM (inactive) | GI50 [19]: 80.4 µM (inactive) and 76.4 µM (inactive) | GI50 [20]: 36.1 µM (inactive) and 19.3 µM (inactive) | GI50 [58]: 49.5 µM (inactive) and 46.1 µM (inactive) | GI50 [21]: 9.82 µM (inactive) and 16.4 µM (inactive) | GI50 [23]: 32.2 µM (inactive) and 18.6 µM (inactive) | GI50 [26]: 72.3 µM (inactive) and 52.5 µM (inactive) | GI50 [28]: 23.2 µM (inactive) and 19 µM (inactive) | GI50 [30]: 29.5 µM (inactive) and 42.9 µM (inactive) | GI50 [32]: 37.2 µM (inactive) and 31.7 µM (inactive) | GI50 [33]: 66.4 µM (inactive) and 34.5 µM (inactive) | GI50 [34]: 55.1 µM (inactive) | GI50 [37]: > 100 µM (inactive) and 85.3 µM (inactive) | GI50 [38]: 94.4 µM (inactive) | GI50 [39]: 28.7 µM (inactive) and 51.8 µM (inactive) | GI50 [42]: > 100 µM (inactive) and 66.4 µM (inactive) | GI50 [47]: 30.1 µM (inactive) and 29.5 µM (inactive) | GI50 [48]: 21.1 µM (inactive) and 39.2 µM (inactive) | GI50 [52]: 59.7 µM (inactive) and 35.8 µM (inactive) | GI50 [53]: 33.5 µM (inactive) and 18.9 µM (inactive) | GI50 [56]: 62.1 µM (inactive) and 35.4 µM (inactive) | GI50 [57]: 32.4 µM (inactive) and 22.3 µM (inactive)
